Results: paper PMC4335062, “Data-Driven Prediction and Design of bZIP Coiled-Coil Interactions” (PLoS Computational Biology, 2015)
Read-outs that look alike come from different tables or passages of the source. Where no end group is shown, it is not given here.

Key:
Assay in all cases: Direct-binding FRET assay
CREB3 = molecular target: T1, CREB3 (Homo sapiens, UniProt O43889); conditions: mean or single, read-out: Kd
T1 construct: made in house
T1 sequence (O43889 150-213 limits assumed): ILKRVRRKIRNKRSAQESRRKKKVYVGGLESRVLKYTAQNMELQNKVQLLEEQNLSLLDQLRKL
Protocol: (§1) The direct binding assay was performed manually in 384-well plates and is similar to a previously described assay. Wells were filled with 20 μL of 1 mM TCEP-HCl. A 4 μM stock of acceptor protein was made fresh in 1 mM TCEP-HCl, and 20 μL was titrated in 2-fold dilutions over the wells. […] The direct-binding FRET data were fit as previously described. Briefly, the Kd of the designed peptide homodimer was experimentally determined and used with previously determined target homodimer Kd values to determine the heterodimer Kd. The homodimer Kd values used for the human bZIPs were from; experiments done by […] et al. used the same protein constructs for the human bZIP proteins, the same buffer conditions, and the same assay. The fitting used a system of ordinary differential equations to describe the concentrations of homo and heterodimers formed by the donor (D) and acceptor (A) as a function of the heterodimer Kd. MATLAB was used to simulate the binding experiment for different Kd values, and the value that gave the best agreement between simulation and experiment was assigned. A minimum 15% change in the donor fluorescence upon titrating the acceptor peptide from 0 to 1000 nM was required for a fit to be attempted. If this minimum was not met, the interaction was classified as “NS” for no signal change. […] These interactions were marked “AS” to indicate anomalous signal. We attributed this to interactions between the peptides, the dyes and the walls of the assay plates at low concentrations. These curves could not be fit, given their unusual shapes at low concentrations of acceptor. For such curves, we removed the first five points and re-fit the data. […] One example of this is increasing concentrations of acceptor causing an increase in donor fluorescence.

ATF5 = molecular target: T2, ATF5 (Homo sapiens, UniProt Q9Y2D1); conditions: mean or single, read-out: Kd
T2 construct: made in house
T2 sequence (Q9Y2D1 208-271 limits assumed): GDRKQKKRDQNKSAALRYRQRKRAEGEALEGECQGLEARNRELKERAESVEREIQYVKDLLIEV
Protocol: as §1

JUNB = molecular target: T3, JUNB (Homo sapiens, UniProt P17275); conditions: mean or single, read-out: Kd
T3 construct: made in house
T3 sequence (P17275 268-331 limits assumed): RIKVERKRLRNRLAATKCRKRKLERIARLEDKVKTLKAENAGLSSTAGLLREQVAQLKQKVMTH
Protocol: as §1

DBP = molecular target: T4, DBP (Homo sapiens, UniProt Q10586); conditions: read-out: Kd
T4 construct: made in house
T4 sequence (Q10586 255-318 limits assumed): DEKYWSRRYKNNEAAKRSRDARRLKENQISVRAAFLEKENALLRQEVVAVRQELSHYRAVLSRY
Protocol: as §1

BATF2 = molecular target: T5, BATF2 (Homo sapiens, UniProt Q8N1L9); conditions: mean or single, read-out: Kd
T5 construct: made in house
T5 sequence (Q8N1L9 17-80 limits assumed): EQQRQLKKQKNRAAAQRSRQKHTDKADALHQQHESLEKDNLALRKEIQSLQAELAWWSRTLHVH
Protocol: as §1

HLF = molecular target: T6, HLF (Homo sapiens, UniProt Q16534); conditions: read-out: Kd
T6 construct: made in house
T6 sequence (Q16534 225-288 limits assumed): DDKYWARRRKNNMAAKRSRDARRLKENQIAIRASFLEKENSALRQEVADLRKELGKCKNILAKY
Protocol: as §1

BATF3 = molecular target: T7, BATF3 (Homo sapiens, UniProt Q9NR55); conditions: mean or single, read-out: Kd
T7 construct: made in house
T7 sequence (Q9NR55 35-98 limits assumed): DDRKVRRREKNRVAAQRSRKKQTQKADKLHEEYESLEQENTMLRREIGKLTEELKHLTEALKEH
Protocol: as §1

FOSL1 = molecular target: T8, FOSL1 (Homo sapiens, UniProt P15407); conditions: mean or single, read-out: Kd
T8 construct: made in house
T8 sequence (P15407 105-168 limits assumed): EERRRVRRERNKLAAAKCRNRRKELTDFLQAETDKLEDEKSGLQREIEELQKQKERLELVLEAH
Protocol: as §1

ATF2 = molecular target: T9, ATF2 (Homo sapiens, UniProt P15336); conditions: read-out: Kd
T9 construct: made in house
T9 sequence (P15336 352-415 limits assumed): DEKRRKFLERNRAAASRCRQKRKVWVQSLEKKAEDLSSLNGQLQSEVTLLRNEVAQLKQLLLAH
Protocol: as §1

NFIL3 = molecular target: T10, NFIL3 (Homo sapiens, UniProt Q16649); conditions: read-out: Kd
T10 construct: made in house
T10 sequence (Q16649 73-136 limits assumed): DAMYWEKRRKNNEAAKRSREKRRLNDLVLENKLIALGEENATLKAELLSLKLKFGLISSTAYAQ
Protocol: as §1

[1] = 4°C, C-terminal rhodamine design
[2] = 4°C, N-terminal rhodamine design
[3] = 23°C, C-terminal rhodamine design
[4] = 23°C, N-terminal rhodamine design
[5] = 37°C, C-terminal rhodamine design
[6] = 37°C, N-terminal rhodamine design
[7] = 4°C, C-terminal fluorescein design as donor, TAMRA target titrated
[8] = 4°C, C-terminal rhodamine design, mean or single
[9] = 4°C, N-terminal rhodamine design, mean or single
[10] = 23°C, C-terminal fluorescein design as donor, TAMRA target titrated
[11] = 23°C, C-terminal rhodamine design, mean or single
[12] = 23°C, N-terminal rhodamine design, mean or single
[13] = 37°C, C-terminal fluorescein design as donor, TAMRA target titrated
[14] = 37°C, C-terminal rhodamine design, mean or single
[15] = 37°C, N-terminal rhodamine design, mean or single

In the case of “EREAQLENRVAHLKEKNQELKAQNLHLKEALSEAQNRNQELKNDA [XBP1-d1]”, the Kd (CREB3; [1]) is reported as greater than 1 µM, the Kd (CREB3; [2]) is reported as greater than 1 µM and the Kd (CREB3; [3]) is reported as greater than 1 µM. For the same sequence, the Kd (CREB3; [4]) was greater than 1 µM, the Kd (CREB3; [5]) was greater than 1 µM and the Kd (CREB3; [6]) was greater than 1 µM. It also gave a Kd (ATF5; [1]) greater than 1 µM, a Kd (ATF5; [2]) greater than 1 µM and a Kd (ATF5; [3]) greater than 1 µM. The Kd (ATF5; [4]) was greater than 1 µM, the Kd (ATF5; [5]) was greater than 1 µM and the Kd (ATF5; [6]) was greater than 1 µM. The Kd (JUNB; [1]) was greater than 1 µM, the Kd (JUNB; [2]) was greater than 1 µM and the Kd (JUNB; [3]) was greater than 1 µM. The Kd (JUNB; [4]) was greater than 1 µM, the Kd (JUNB; [5]) was greater than 1 µM and the Kd (JUNB; [6]) was greater than 1 µM. The Kd (DBP; [7]) was greater than 1 µM, the Kd (DBP; [8]) was greater than 1 µM and the Kd (DBP; [9]) was greater than 1 µM. The Kd (DBP; [10]) was greater than 1 µM, the Kd (DBP; [11]) was greater than 1 µM and the Kd (DBP; [12]) was greater than 1 µM. For the same sequence, the Kd (DBP; [13]) was greater than 1 µM, the Kd (DBP; [14]) was greater than 1 µM and the Kd (DBP; [15]) was greater than 1 µM. It also gave a Kd (BATF2; [1]) of less than 0.2 µM, a Kd (BATF2; [2]) greater than 1 µM and a Kd (BATF2; [3]) greater than 1 µM. It also gave a Kd (BATF2; [4]) greater than 1 µM, a Kd (BATF2; [5]) greater than 1 µM and a Kd (BATF2; [6]) greater than 1 µM. It also gave a Kd (HLF; [7]) greater than 1 µM, a Kd (HLF; [8]) greater than 1 µM and a Kd (HLF; [9]) greater than 1 µM. For the same sequence, the Kd (HLF; [10]) was greater than 1 µM, the Kd (HLF; [11]) was greater than 1 µM and the Kd (HLF; [12]) was greater than 1 µM. For the same sequence, the Kd (HLF; [13]) was greater than 1 µM, the Kd (HLF; [14]) was greater than 1 µM and the Kd (HLF; [15]) was greater than 1 µM. The Kd (BATF3; [1]) was greater than 5 µM, the Kd (BATF3; [2]) was greater than 1 µM and the Kd (BATF3; [3]) was greater than 1 µM. The Kd (BATF3; [4]) was greater than 1 µM, the Kd (BATF3; [5]) was greater than 1 µM and the Kd (BATF3; [6]) was greater than 1 µM. It also gave a Kd (FOSL1; [1]) greater than 1 µM, a Kd (FOSL1; [2]) greater than 1 µM and a Kd (FOSL1; [3]) greater than 1 µM. The Kd (FOSL1; [4]) was greater than 1 µM, the Kd (FOSL1; [5]) was greater than 1 µM and the Kd (FOSL1; [6]) was greater than 1 µM. The Kd (ATF2; [7]) was greater than 1 µM, the Kd (ATF2; [8]) was greater than 1 µM and the Kd (ATF2; [9]) was greater than 1 µM. It also gave a Kd (ATF2; [10]) greater than 1 µM, a Kd (ATF2; [11]) greater than 1 µM and a Kd (ATF2; [12]) greater than 1 µM. It also gave a Kd (ATF2; [13]) greater than 1 µM, a Kd (ATF2; [14]) greater than 1 µM and a Kd (ATF2; [15]) greater than 1 µM. For the same sequence, the Kd (NFIL3; [7]) was greater than 1 µM, the Kd (NFIL3; [8]) was greater than 1 µM and the Kd (NFIL3; [9]) was greater than 1 µM. For the same sequence, the Kd (NFIL3; [10]) was greater than 1 µM, the Kd (NFIL3; [11]) was greater than 1 µM and the Kd (NFIL3; [12]) was greater than 1 µM. For the same sequence, the Kd (NFIL3; [13]) was greater than 1 µM, the Kd (NFIL3; [14]) was greater than 1 µM and the Kd (NFIL3; [15]) was greater than 1 µM.
